From ChEMBL document CHEMBL1201862, “PubChem BioAssay data set” (2004)
Activity calls are given as the source filed them. Peptide text beside a SMILES is read from it. * marks the point of attachment. Cbz = O=C(OCc1ccccc1)*

How the values were obtained:
Cytochrome P450 2D6 = Cytochrome P450 2D6 (Homo sapiens, UniProt P10635);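 also: CYP2D6 member of a cytochrome P450 panel assay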
Cytochrome P450 2C9 = Cytochrome P450 2C9 (Homo sapiens, UniProt P11712)
Cytochrome P450 3A4 = Cytochrome P450 3A4 (Homo sapiens, UniProt P08684);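 also: CYP3A4 tested as one member of a cytochrome P450 panel screen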
Chain of Cytochrome P450 3A4 (P08684 whole entry): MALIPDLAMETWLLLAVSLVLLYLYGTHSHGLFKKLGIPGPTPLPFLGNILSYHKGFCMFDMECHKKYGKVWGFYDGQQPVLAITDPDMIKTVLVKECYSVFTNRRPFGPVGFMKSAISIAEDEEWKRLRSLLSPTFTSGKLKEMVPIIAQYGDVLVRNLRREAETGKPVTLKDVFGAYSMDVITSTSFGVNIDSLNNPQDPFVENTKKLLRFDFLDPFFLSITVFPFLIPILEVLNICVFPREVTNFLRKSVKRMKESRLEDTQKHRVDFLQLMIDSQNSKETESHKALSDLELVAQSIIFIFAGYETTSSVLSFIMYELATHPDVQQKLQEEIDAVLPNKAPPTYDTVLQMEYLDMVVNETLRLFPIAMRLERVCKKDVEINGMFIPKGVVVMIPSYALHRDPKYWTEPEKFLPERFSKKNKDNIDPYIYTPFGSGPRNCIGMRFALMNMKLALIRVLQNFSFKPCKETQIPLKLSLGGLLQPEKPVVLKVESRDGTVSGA

Cytochrome P450 1A2 = biological target: T1, Cytochrome P450 1A2 (Homo sapiens, UniProt P05177);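 also: PubChem cytochrome P450 panel assay, CYP1A2 panel member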
T1 sequence (P05177 whole entry): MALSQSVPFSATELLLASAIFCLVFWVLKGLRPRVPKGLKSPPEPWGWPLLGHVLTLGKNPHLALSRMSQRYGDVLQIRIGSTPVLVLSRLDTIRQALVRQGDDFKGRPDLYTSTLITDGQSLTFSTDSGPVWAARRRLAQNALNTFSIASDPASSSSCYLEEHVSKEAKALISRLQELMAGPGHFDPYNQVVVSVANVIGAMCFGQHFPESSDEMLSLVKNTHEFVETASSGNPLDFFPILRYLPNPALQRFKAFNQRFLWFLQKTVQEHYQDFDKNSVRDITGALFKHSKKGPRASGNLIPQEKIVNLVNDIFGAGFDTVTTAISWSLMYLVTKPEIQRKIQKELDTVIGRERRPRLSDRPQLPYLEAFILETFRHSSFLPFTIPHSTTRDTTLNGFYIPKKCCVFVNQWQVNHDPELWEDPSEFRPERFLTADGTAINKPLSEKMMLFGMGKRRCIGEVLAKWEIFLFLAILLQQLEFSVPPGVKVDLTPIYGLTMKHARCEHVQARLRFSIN

[1] = biological target: T2, Polyadenylate-binding protein 1 (Homo sapiens, UniProt P11940); experiment: PABP1 MLLE–PAM2 binding inhibitor potency, dose response, biochemical, fluorescence polarization, FITC-PAM2 peptide (AID 602259); assay type: functional; conditions: read-out: IC50_Mean
T2 sequence (P11940 whole entry): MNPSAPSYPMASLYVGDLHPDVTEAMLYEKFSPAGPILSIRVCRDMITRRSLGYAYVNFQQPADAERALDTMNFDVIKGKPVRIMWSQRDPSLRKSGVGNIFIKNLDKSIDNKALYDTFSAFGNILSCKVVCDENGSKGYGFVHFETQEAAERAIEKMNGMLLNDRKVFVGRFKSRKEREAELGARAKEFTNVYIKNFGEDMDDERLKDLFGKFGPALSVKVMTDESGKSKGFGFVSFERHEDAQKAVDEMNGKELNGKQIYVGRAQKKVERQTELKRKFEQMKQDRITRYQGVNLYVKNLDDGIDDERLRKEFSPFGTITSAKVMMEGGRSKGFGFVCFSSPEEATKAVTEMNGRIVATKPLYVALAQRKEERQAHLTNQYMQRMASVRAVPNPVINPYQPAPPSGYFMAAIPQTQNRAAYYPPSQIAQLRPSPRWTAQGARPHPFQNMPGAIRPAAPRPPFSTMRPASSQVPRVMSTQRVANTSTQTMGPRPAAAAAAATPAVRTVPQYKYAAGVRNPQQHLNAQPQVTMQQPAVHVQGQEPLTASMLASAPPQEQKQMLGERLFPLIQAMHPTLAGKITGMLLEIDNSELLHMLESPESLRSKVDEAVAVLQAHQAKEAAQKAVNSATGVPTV

[2] = biological target: T2, Polyadenylate-binding protein 1; experiment: PABP1 MLLE–PAM2 interaction inhibitors, dose response, miRNA deadenylation inhibitor project, biochemical, fluorescence polarization, Cy5-PAM2 peptide, secondary (AID 602260); assay type: functional; conditions: read-out: IC50_Mean
Cytochrome P450 2C19 = Cytochrome P450 2C19 (Homo sapiens, UniProt P33261); experiment: Cytochrome panel assay with activity outcomes. Panel member name: p450-cyp2c19 Compounds with AC50 equal or less than 10 uM are considered active; assay type: functional; conditions: read-out: AC50
Chain of Cytochrome P450 2C19 (P33261 whole entry): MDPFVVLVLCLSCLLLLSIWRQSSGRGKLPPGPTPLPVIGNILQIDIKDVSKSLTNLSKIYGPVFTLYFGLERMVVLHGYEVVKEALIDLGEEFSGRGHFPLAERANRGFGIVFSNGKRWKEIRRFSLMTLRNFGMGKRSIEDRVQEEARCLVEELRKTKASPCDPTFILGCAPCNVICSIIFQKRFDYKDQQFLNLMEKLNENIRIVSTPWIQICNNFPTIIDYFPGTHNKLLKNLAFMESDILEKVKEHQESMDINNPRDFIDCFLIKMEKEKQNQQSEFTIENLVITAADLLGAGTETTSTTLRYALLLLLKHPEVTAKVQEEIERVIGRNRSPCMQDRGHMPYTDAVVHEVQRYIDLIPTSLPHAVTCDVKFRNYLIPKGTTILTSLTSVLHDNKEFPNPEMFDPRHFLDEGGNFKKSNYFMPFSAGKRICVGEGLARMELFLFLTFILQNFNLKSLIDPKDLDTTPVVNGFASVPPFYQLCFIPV

[3] = biological target: T3, Replicative DNA helicase DnaB (Mycobacterium tuberculosis, UniProt P9WMR3); experiment: DnaB intein splicing inhibitors, dose response, biochemical, cell-free fluorescence (AID 449749); assay type: functional
T3 sequence (P9WMR3 whole entry): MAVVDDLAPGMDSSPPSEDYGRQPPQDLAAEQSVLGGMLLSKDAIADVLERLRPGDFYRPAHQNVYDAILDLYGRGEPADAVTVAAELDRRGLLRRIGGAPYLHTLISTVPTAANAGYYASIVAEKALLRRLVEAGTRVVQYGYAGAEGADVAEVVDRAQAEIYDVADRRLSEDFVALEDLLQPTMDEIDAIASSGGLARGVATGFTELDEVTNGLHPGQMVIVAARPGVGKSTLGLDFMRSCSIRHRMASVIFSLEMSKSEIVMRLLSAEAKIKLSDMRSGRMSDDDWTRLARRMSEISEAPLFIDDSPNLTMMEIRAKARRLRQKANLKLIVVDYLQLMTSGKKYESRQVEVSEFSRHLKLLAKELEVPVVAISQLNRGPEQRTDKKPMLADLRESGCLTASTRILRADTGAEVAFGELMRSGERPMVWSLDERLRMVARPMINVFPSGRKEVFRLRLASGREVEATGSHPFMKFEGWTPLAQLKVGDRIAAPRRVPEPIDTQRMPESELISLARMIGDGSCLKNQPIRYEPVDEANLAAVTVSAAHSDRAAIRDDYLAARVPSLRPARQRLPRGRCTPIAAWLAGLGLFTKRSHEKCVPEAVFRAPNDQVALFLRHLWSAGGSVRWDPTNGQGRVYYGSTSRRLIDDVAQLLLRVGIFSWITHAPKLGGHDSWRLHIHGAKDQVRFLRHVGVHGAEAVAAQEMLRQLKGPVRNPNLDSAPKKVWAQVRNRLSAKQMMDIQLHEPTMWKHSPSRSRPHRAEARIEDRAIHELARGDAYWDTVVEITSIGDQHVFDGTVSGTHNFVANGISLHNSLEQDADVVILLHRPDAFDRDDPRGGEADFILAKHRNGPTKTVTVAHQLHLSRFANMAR

Protein RecA = biological target: T4, Protein RecA (Mycobacterium tuberculosis, UniProt P9WHJ3); experiment: Fluorescence Cell-Free Homogeneous Dose Retest to Identify Inhibitors of RecA-Intein Splicing Activity. [Related pubchem assays (depositor defined):AID2097, AID2223, AID489010, AID492950]; assay type: functional
T4 sequence (P9WHJ3 whole entry): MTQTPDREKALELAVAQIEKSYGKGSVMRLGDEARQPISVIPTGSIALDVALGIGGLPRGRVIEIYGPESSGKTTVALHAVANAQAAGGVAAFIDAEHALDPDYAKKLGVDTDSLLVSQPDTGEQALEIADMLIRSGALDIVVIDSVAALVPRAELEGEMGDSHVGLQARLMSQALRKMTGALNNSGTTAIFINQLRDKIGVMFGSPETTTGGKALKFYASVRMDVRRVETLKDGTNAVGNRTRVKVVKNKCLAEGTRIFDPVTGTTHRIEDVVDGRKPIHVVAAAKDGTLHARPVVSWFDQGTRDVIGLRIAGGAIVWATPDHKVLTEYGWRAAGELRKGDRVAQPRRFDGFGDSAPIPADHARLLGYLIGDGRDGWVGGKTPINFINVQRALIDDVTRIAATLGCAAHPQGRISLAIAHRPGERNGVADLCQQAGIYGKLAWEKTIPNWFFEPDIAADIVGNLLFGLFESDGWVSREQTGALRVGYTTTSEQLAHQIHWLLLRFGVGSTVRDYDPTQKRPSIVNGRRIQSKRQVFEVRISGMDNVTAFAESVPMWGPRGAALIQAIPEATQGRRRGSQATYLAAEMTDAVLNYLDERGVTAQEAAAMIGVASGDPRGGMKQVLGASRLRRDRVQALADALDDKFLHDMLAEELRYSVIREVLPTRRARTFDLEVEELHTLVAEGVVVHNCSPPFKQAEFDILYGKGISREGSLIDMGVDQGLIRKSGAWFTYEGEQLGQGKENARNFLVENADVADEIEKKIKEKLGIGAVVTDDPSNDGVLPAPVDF

Chain of Cytochrome P450 2C9 (P11712 whole entry): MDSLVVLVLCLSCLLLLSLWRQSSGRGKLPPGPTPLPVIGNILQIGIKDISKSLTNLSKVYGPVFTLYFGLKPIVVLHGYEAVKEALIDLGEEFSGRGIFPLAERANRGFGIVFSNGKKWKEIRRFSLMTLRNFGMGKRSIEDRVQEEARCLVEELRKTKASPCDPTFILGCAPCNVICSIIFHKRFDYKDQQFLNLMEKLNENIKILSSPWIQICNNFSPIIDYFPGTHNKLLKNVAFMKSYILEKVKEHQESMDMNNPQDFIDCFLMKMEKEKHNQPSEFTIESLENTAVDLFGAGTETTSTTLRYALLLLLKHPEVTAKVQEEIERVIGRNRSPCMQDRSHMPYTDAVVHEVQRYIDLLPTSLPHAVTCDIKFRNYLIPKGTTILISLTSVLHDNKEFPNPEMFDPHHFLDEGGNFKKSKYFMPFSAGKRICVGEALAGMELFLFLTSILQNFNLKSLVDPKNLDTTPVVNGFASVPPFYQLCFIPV
Chain of Cytochrome P450 2D6 (P10635 whole entry): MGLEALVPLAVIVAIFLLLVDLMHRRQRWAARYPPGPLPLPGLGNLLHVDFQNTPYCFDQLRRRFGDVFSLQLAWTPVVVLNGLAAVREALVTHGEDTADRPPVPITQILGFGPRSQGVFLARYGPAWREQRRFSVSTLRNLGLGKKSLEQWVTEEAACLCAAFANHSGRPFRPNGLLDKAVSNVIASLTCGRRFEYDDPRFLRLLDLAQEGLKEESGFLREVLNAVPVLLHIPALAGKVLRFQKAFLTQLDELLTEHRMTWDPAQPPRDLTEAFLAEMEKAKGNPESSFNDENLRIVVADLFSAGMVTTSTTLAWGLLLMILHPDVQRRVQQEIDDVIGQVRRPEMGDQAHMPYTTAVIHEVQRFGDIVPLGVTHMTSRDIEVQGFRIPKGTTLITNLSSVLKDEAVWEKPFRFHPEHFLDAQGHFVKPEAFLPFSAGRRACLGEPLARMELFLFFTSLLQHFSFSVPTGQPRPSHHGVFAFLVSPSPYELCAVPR

SMILES: CC[C@]1(c2ncc[nH]2)Cc2ccccc2O1
- AC50 (Cytochrome P450 2D6): 10 µM (inconclusive)
- AC50 (Cytochrome P450 2C9): 25.1 µM (inconclusive)

SMILES: Cc1nn(CC(=O)NCc2ccccc2Cl)c(C)c1[N+](=O)[O-]
- AC50 (Cytochrome P450 3A4): 14.1 µM (inconclusive)
- AC50 (Cytochrome P450 2D6): 25.1 µM (inconclusive)
- AC50 (Cytochrome P450 2C9): 12.6 µM (inconclusive)
- AC50 (Cytochrome P450 1A2): 12.6 µM (inconclusive)

SMILES: O=S(=O)(NC(=S)NC1CCCCC1)c1ccccc1
- IC50 [1]: > 66 µM (inactive)
- IC50 [2]: > 66 µM (inactive)

SMILES: C=O.C[C@@H]1Cc2ccccc2N1NC(=O)c1ccc(Cl)c([S+](N)[O-])c1 (some centres not stated)
- AC50 (Cytochrome P450 3A4): 5.01 µM (inconclusive)

SMILES: COc1ccccc1CNc1nc(-c2c(C)noc2C)nc2ccccc12
- AC50 (Cytochrome P450 2C19): 1.58 µM (inconclusive)
- AC50 (Cytochrome P450 2D6): 7.94 µM (inconclusive)
- AC50 (Cytochrome P450 2C9): 1 µM (inconclusive)

SMILES: C[C@@H](C(=O)O)/C(=C/c1ccc2c(c1)OCO2)C(=O)O
- AC50 (Cytochrome P450 3A4): 6.31 µM (inconclusive)
- AC50 (Cytochrome P450 1A2): 0.316 µM (inconclusive)

SMILES: O=C1C(Cl)=C(N2CCOCC2)C(=O)N1c1ccccc1F
- AC50 [3]: 10.8 µM (active)
- EC50 (Protein RecA): 2.47 µM (active)

SMILES: COc1ccccc1C1CC(c2cccs2)=Nc2ccccc2S1 (configuration not stated)
- IC50 [1]: > 66 µM (inactive)
- IC50 [2]: > 66 µM (inactive)

SMILES: Cn1cc(-c2nc3cnc(N4CCOCC4)nc3n(CCC#N)c2=O)c2ccccc21
- AC50 (Cytochrome P450 3A4): 15.8 µM (inconclusive)

SMILES: O=C(CCc1nc(-c2ccccc2)c(-c2ccccc2)o1)OCc1ccc(Cl)cc1
- AC50 (Cytochrome P450 3A4): 35.5 µM (inconclusive)

SMILES: O=C(CN1C(=O)/C(=C/c2ccccc2Cl)SC1=S)NC1CCS(=O)(=O)C1 (configuration not stated)
- IC50 [1]: > 66 µM (inactive)
- IC50 [2]: > 66 µM (inactive)

SMILES: Cc1ccc(OCC(=O)Nc2ccccc2-c2ccccc2)cc1
- AC50 (Cytochrome P450 2C9): 11.2 µM (inconclusive)

SMILES: Cc1cc(C)n2nc(SCc3cc(=O)oc4ccc5ccccc5c34)nc2n1
- IC50 [1]: > 66 µM (inactive)
- IC50 [2]: > 66 µM (inactive)

SMILES: O=C(NC(=S)Nc1cccc2cccnc12)c1ccccc1
- IC50 [1]: > 66 µM (inactive)
- IC50 [2]: > 66 µM (inactive)

SMILES: O=C(N/C(=C\c1cccs1)C(=O)N1CCCCCC1)c1ccccc1
- AC50 (Cytochrome P450 2C19): 5.01 µM (inconclusive)
- AC50 (Cytochrome P450 2C9): 31.6 µM (inconclusive)

SMILES: COc1cc(Cc2nccc3cc(OC)c(OC)cc23)c(S(=O)(=O)O)cc1OC
- AC50 [3]: 161 µM (active)
- EC50 (Protein RecA): 85.7 µM (active)

SMILES: Cc1ccccc1-c1nc(C[S+]([O-])CC(=O)NCCN2CCN(Cc3ccccc3)CC2)c(C)o1 (configuration not stated)
- AC50 (Cytochrome P450 2C9): 39.8 µM (inconclusive)

SMILES: CCc1noc(C)c1C(=O)N1CCN(S(=O)(=O)c2ccccc2C(F)(F)F)CC1
- IC50 [1]: > 66 µM (inactive)
- IC50 [2]: > 66 µM (inactive)

SMILES: COc1ccc(-c2nc3cnc(Oc4ccccc4)nc3n(C3CC3)c2=O)cc1
- AC50 (Cytochrome P450 3A4): 15.8 µM (inconclusive)

SMILES: O=c1cnc2cnc(Oc3cccc(Cl)c3)nc2n1Cc1ccc(F)cc1
- AC50 (Cytochrome P450 3A4): 25.1 µM (inconclusive)

SMILES: CCOC(=O)C(CC)Sc1ncnc2c1nnn2-c1ccc(F)cc1 (configuration not stated)
- AC50 [3]: 0.908 µM (active)
- EC50 (Protein RecA): 26.7 µM (active)

SMILES: Cc1ccc(NC(=O)C(CC(C)C)NC(N)=O)cc1 (configuration not stated)
- AC50 [3]: > 380 µM (inactive)
- EC50 (Protein RecA): > 380 µM (inactive)

SMILES: CCC1NC(=S)N(C2CCCCC2)C1=O (configuration not stated)
- AC50 (Cytochrome P450 2C19): 5.01 µM (inconclusive)
- AC50 (Cytochrome P450 2C9): 15.8 µM (inconclusive)

SMILES: O=C(COc1ccc(Br)cc1)NNC(=O)c1ccc(-n2cncn2)c([N+](=O)[O-])c1
- IC50 [1]: > 66 µM (inactive)
- IC50 [2]: > 66 µM (inactive)

SMILES: CC1Nc2ncnc(N3CCc4ccccc4C3)c2N(Cc2ccc(Br)cc2)C1=O (configuration not stated)
- AC50 [3]: > 380 µM (inactive)
- EC50 (Protein RecA): 23.7 µM (active)

SMILES: Cc1n[nH]c(C)c1S(=O)(=O)N1CCOCC1
- AC50 (Cytochrome P450 2C9): 17.8 µM (inconclusive)

SMILES: O=C(O)c1nn(-c2ccccc2)ccc1=O
- AC50 (Cytochrome P450 2C9): 0.398 µM (inconclusive)

SMILES: Cc1nc2ccccc2c2c1C(=O)NC2=O
- AC50 [3]: 76.5 µM (active)
- EC50 (Protein RecA): 3.72 µM (active)

SMILES: CC(=O)Nc1ccc(SCC(=O)NC(=O)c2ccc(S(=O)(=O)N(C)C)cc2)cc1
- IC50 [1]: > 66 µM (inactive)
- IC50 [2]: > 66 µM (inactive)

SMILES: Cc1ccc(S(=O)(=O)CCSc2cccc(C(=O)O)c2)cc1
- IC50 [1]: > 66 µM (inactive)
- IC50 [2]: > 66 µM (inactive)

SMILES: CCCCn1[nH]c(-c2ccccc2)cc1=O
- AC50 [3]: 2.96 µM (active)
- EC50 (Protein RecA): 1.05 µM (active)

SMILES: O=C(N/N=C/c1ccc(Cl)cc1)Nc1ccccc1
- AC50 (Cytochrome P450 3A4): 12.6 µM (inconclusive)
- AC50 (Cytochrome P450 2C9): 25.1 µM (inconclusive)

SMILES: C/C(=N/NC(=O)Cc1cc(O)[nH]n1)c1ccc([N+](=O)[O-])cc1
- AC50 [3]: 2.51 µM (active)
- EC50 (Protein RecA): 1.38 µM (active)

SMILES: C/C(=N\NC(=O)c1cccc(Cl)c1)c1cccc(NC(=O)C(C)C)c1
- AC50 (Cytochrome P450 3A4): 15.8 µM (inconclusive)
- AC50 (Cytochrome P450 2D6): 28.2 µM (inconclusive)

SMILES: N[C@@H](Cc1cc(-c2ccc(Cl)cc2Cl)cc(CP(=O)(O)O)c1O)C(=O)O
- AC50 (Cytochrome P450 2C19): 7.94 µM (inconclusive)
- AC50 (Cytochrome P450 2C9): 20 µM (inconclusive)
- AC50 (Cytochrome P450 1A2): 20 µM (inconclusive)

SMILES: COc1cccc(-c2cncnc2NCc2ccccc2)c1
- AC50 (Cytochrome P450 2D6): 39.8 µM (inconclusive)
- AC50 (Cytochrome P450 2C9): 0.158 µM (inconclusive)

SMILES: COC(=O)CCC(NC(=O)OCc1ccccc1)C(=O)NC(CC(C)C)C(=O)OC (configuration not stated) (Cbz-Glu(OMe)-Leu-OMe; configuration not given here)
- AC50 (Cytochrome P450 3A4): 14.1 µM (inconclusive)

SMILES: CCCN(CCC)C(=O)Cc1c(-c2ccc(Cl)cc2)nc2c(Cl)cc(Cl)cn12 [ALPDEM]
- AC50 (Cytochrome P450 3A4): 0.794 µM (inconclusive)

SMILES: COc1ccc(-c2nc(C(=O)N3CCN(C)CC3)sc2-c2ccc(OC)cc2)cc1 [FR-122047]
- AC50 (Cytochrome P450 3A4): 7.94 µM (inconclusive)
- AC50 (Cytochrome P450 2C9): 20 µM (inconclusive)
- AC50 (Cytochrome P450 1A2): 31.6 µM (inconclusive)
